According to US9284350B2, “IAP BIR domain binding compounds” (Pharmascience Inc., priority 2010, dated 2016):
pEC50, pKi: −log10 of the molar value.

Columns and labels:
XIAP = target: T1, XIAP (Homo sapiens, UniProt P98170); experiment: Fluorescence polarization-based competition assay, XIAP; format: binding; settings: FP assay, ki derived from IC50
T1 construct: fused on or other part: GST tag at the N-terminus (pGEX4T vectors)
Procedure, shortened: (§1)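 Competition of FITC-labelled probe (2 nM) binding to the BIR domain, protein set at 80% of maximal FP signal; 10-point compound dilutions in 50 mM HEPES pH 7.5, γ-globulin, 2 mM DTT, 1% DMSO, 1 h at room temperature in the dark. IC50 from sigmoidal fit; Ki derived from IC50.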

c-IAP1 = target: T2, c-IAP1 (Homo sapiens, UniProt Q13490); experiment: Fluorescence polarization-based competition assay, c-IAP1; format: binding; settings: FP assay, ki derived from IC50
T2 construct: GST (N); made in house; host or cells: E. coli DH5α
Procedure, shortened: as §1

cIAP2 = target: T3, cIAP2 (Homo sapiens, UniProt Q13489); experiment: Fluorescence polarization-based competition assay, cIAP2; format: binding; settings: FP assay, ki derived from IC50
T3 construct: GST (N); made in house; host or cells: E. coli DH5α
Description: Binding of compounds of Formula 1 to target BIR domains was measured using a fluorescence-polarization (FP) assay. Fluorescence-polarization was evaluated using a GENios microplate reader (TECAN) Pro instrument with the excitation filter set at 485 nm and the emission filter set at 535 nm. The final amount of protein used in the assay corresponds to the amount of protein necessary to obtain 80% of the maximum FP value in a P1 or P2 fluorescent (FITC) probe saturation experiment. The compounds potency (IC50) and selectivity, was assessed in the presence of the amount of target protein established, fluorescent probe, and a 10 point serial dilution in assay buffer (50 mM Hepes, pH 7.5, 250 mcg/mL γ-globulin, 2 mM DTT, 1% DMSO) of the selected compounds.
Assays were carried out in duplicate using untreated black 96-well plates (Corning #3915) and a total volume of 100 microliters, containing 25 microliters of fluorescent probe at a final concentration of 2 nM in assay buffer, 25 microliters of diluted compound, 25 microliters of BIR protein into assay buffer and 25 microliters of assay buffer. Buffer only (blank) or probe only in buffer (G-factor) were used as controls for calibration. The plate was incubated at room temperature in the dark for one hour and FP values in millipolarization units (mP) were recorded using Genios Pro FP reader.
The measured FP values (mP) were then plotted against compound concentration, and IC50 values were calculated based on a sigmoidal dose-response (variable-slope) curve fit using GraphPad Prism version 4.02 for Windows, GraphPad Software, San Diego Calif. USA and/or CambridgeSoft BioAssay Enterprise Version 10.1. The IC50 value is the concentration of test compound at which 50% of the tracer was displaced. ki values were derived from the calculated IC50 values as described above and according to the equation described in Nikolovska-Coleska, Z. (2004) Anal Biochem 332, 261-273. The results are presented in Table 2, wherein A=less than 25 nM; B=less than 250 nM; C=less than 1000 nM; and D=greater than 1000 nM.

[1] = tested on: Colorectal carcinoma HCT116 cells; experiment: Cell death assay (MTT) in combination with HGS ETR1; format: cell-based; settings: with HGS ETR1 30 ng/ml, 72 hours, read-out: HCT116+ mapatubimap EC50
Procedure, shortened: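 HCT116 cells (2000/well, McCoy's 5a, 10% FBS) were treated 24 h after plating with compound plus the agonistic TRAIL receptor antibody mapatumumab (ETR1, 30 ng/ml) for 72 hours. Viability was read by MTT. EC50 was the concentration giving 50% survival relative to untreated controls.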

MDA-MB-231 (CD) cells = experiment: MDA-MB-231 compound + mapatubamab xenograft study; format: in vivo, nude mice; settings: 30 and 60 mg/kg, PO, QD in combination with mapatubamab (10 mg/kg, IV)
Description: Female, nude mice received 5×10^6 MDA-MB-231 (CD) cells subcutaneously in the right flank (0.1 mL volume) on day 0 of the experiment. When the average tumor size reached ˜100 mm^3, groups were formed using a balanced design based on tumor size, and dosing was initiated. Test compound 10 or 7 (see Table 1) (or corresponding vehicle alone) was given daily, and mapatubamab (or corresponding vehicle alone) was given twice weekly. Tumor size and body weight were measured twice weekly throughout the study.

T2 sequence (Q13490 251-363): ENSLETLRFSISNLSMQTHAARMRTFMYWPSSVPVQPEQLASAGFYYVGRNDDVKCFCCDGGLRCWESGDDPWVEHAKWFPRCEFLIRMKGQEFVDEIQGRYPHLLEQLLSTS
T3 sequence (Q13489 236-349): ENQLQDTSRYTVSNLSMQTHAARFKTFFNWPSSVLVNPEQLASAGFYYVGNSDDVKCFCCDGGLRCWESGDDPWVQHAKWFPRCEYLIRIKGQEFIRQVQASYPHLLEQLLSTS
T1 sequence (P98170 246-497 limits assumed): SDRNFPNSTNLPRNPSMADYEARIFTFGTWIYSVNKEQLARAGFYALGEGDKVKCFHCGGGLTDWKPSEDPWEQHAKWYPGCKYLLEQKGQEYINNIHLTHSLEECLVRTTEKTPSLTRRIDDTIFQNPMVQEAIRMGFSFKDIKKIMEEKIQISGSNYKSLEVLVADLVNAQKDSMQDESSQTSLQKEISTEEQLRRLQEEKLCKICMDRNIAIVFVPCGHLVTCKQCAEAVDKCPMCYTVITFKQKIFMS

Compound | pKi (XIAP) | pKi (c-IAP1) | pKi (cIAP2) | pEC50 [1] | reduction of tumor volume as compared to control (MDA-MB-231 (CD) cells) [%]
CN[C@@H](C)C(=O)N[C@H](C(=O)N1C[C@@H](Oc2ccc(F)cc2)C[C@H]1CN(CCc1ccc(F)cc1)C(=O)c1cn2cccnc2n1)[C@@H](C)OC [Compound 100] | > 6.60 | > 7.60 | > 7.60 | > 6.60 | 
CN[C@@H](C)C(=O)N[C@H](C(=O)N1C[C@@H](Oc2ccc(F)cc2)C[C@H]1CN(CCc1ccc(F)cc1)C(=O)c1cn2ccccc2n1)[C@@H](C)OC [Compound 102] | > 6.60 | > 7.60 | > 7.60 | > 7.30 | 
CN[C@@H](C)C(=O)N[C@H](C(=O)N1C[C@@H](Oc2ccc(OC)cc2)C[C@H]1CN(CCc1ccc(F)cc1)C(=O)c1cn2ccccc2n1)C(C)(C)C [Compound 105] | > 7.60 | > 7.60 | > 7.60 | > 7.30 | 
CN[C@@H](C)C(=O)N[C@H](C(=O)N1C[C@@H](Oc2ccc(F)cc2)C[C@H]1CN(CCc1ccc(F)cc1)C(=O)c1cn2cc(F)cnc2n1)[C@@H](C)OC [Compound 107] | > 6.60 | > 7.60 | > 7.60 | > 7.30 | 
CN[C@@H](C)C(=O)N[C@H](C(=O)N1C[C@@H](Oc2ccc(F)cc2)C[C@H]1CN(CCc1ccc(F)cc1)C(=O)c1cn(-c2ccc(F)cc2)cn1)[C@@H](C)OC [Compound 108] | > 6.60 | > 7.60 | > 7.60 | > 6.60 | 
CN[C@@H](C)C(=O)N[C@H](C(=O)N1CCC[C@H]1CN(CCc1ccc(F)cc1)C(=O)c1ncc(-c2ccccc2)[nH]1)C(C)(C)C [Compound 109] | > 6.60 | > 7.60 | > 7.60 | > 7.30 | 
CN[C@@H](C)C(=O)N[C@H](C(=O)N1CCC[C@H]1CN(CCc1ccc(F)cc1)C(=O)c1cn(C)nn1)C1CCCCC1 [Compound 110] | > 6.60 | > 7.60 | > 7.60 | > 7.30 | 
CN[C@@H](C)C(=O)N[C@H](C(=O)N1C[C@@H](Oc2ccc(OC(F)(F)F)cc2)C[C@H]1CN(CCc1ccc(F)cc1)C(=O)c1cn2ccccc2n1)C(C)(C)C [Compound 111] | > 7.60 | > 7.60 | > 7.60 | > 7.30 | 
CN[C@@H](C)C(=O)N[C@H](C(=O)N1C[C@@H](NC(=O)c2ccccc2)C[C@H]1CN(CCc1ccc(F)cc1)C(=O)c1cn2cc(F)cnc2n1)C(C)(C)C [Compound 112] | > 6.60 | > 7.60 | > 7.60 | > 6.60 | 
CN[C@@H](C)C(=O)N[C@H](C(=O)N1CCC[C@H]1CN(CCc1ccc(F)cc1)C(=O)c1cc(-c2ccccc2)on1)C(C)(C)C [Compound 115] | > 6.60 | > 7.60 | > 7.60 | > 6.60 | 
CN[C@@H](C)C(=O)N[C@H](C(=O)N1C[C@@H](Oc2ccc(F)cc2)C[C@H]1CN(CCc1ccc(F)cc1)C(=O)c1cn2cc(F)cnc2n1)C(C)(C)C [Compound 116] | > 7.60 | > 7.60 | > 7.60 | > 7.30 | 
CN[C@@H](C)C(=O)N[C@H](C(=O)N1CCC[C@H]1CN(CCc1ccc(F)cc1)C(=O)c1ccn(-c2ccccc2)c1)C(C)(C)C [Compound 122] | > 6.60 | > 7.60 | > 7.60 | > 6.60 | 
CN[C@@H](C)C(=O)N[C@H](C(=O)N1CCC[C@H]1CN(CCc1ccc(F)cc1)C(=O)c1ncc(-c2ccccc2)o1)C(C)(C)C [Compound 123] | > 6.60 | > 7.60 | > 7.60 | > 7.30 | 

The next lines start with results.

pKi (XIAP) | pKi (c-IAP1) | pKi (cIAP2) | Compound | pEC50 [1] | reduction of tumor volume as compared to control (MDA-MB-231 (CD) cells) [%]
> 6.60 | > 7.60 | > 7.60 | CN[C@@H](C)C(=O)N[C@H](C(=O)N1CCC[C@H]1CN(CCc1ccccc1)C(=O)c1cn2ccccc2n1)C(C)(C)C [Compound 7] | > 6.60 | 50
> 6.60 | > 7.60 | > 7.60 | CN[C@@H](C)C(=O)N[C@H](C(=O)N1CCC[C@H]1CN(CCc1ccc(F)cc1)C(=O)c1cn2cccnc2n1)C(C)(C)C [Compound 10] | > 7.30 | 50
> 6.60 | > 7.60 | > 7.60 | CN[C@@H](C)C(=O)N[C@H](C(=O)N1CCC[C@H]1CN(CCc1ccc(F)cc1)C(=O)c1cc(C)on1)C(C)(C)C [Compound 98] | > 6.60 | 
> 6.60 | > 7.60 | > 7.60 | CN[C@@H](C)C(=O)N[C@H](C(=O)N1C[C@@H](Oc2ccc(F)cc2)C[C@H]1CN(CCc1ccc(F)cc1)C(=O)c1cn(C)cn1)[C@@H](C)OC [Compound 99] | > 7.30 | 
> 6.60 | > 7.60 | > 7.60 | CN[C@@H](C)C(=O)N[C@H](C(=O)N1CCC[C@H]1CN(CCc1ccc(F)cc1)C(=O)c1cn2cc(F)cnc2n1)C1CCCCC1 [Compound 103] | > 7.30 | 
> 6.60 | > 7.60 | > 7.60 | CN[C@@H](C)C(=O)N[C@H](C(=O)N1CCC[C@H]1CN(CCc1ccc(F)cc1)C(=O)c1cn(-c2ccc(F)cc2)cn1)C1CCCCC1 [Compound 104] | > 7.30 | 
> 6.60 | > 7.60 | > 7.60 | CN[C@@H](C)C(=O)N[C@H](C(=O)N1C[C@@H](Oc2ccncc2)C[C@H]1CN(CCc1ccc(F)cc1)C(=O)c1cn2ccccc2n1)C(C)(C)C [Compound 106] | > 7.30 | 
> 6.60 | > 7.60 | > 7.60 | CN[C@@H](C)C(=O)N[C@H](C(=O)N1CCC[C@H]1CN(CCc1ccc(F)cc1)C(=O)c1cn2c(n1)CCC2)C1CCCCC1 [Compound 113] | > 7.30 | 
> 7.60 | > 7.60 | > 7.60 | CN[C@@H](C)C(=O)N[C@H](C(=O)N1C[C@@H](Oc2ccc(F)cc2)C[C@H]1CN(CCc1ccc(F)cc1)C(=O)c1cn2c(n1)CCC2)[C@@H](C)OC [Compound 114] | > 7.30 | 
> 6.00 | > 7.60 | > 7.60 | CN[C@@H](C)C(=O)N[C@H](C(=O)N1CCC[C@H]1CN(CCc1ccc(F)cc1)C(=O)c1nnc(-c2ccccc2)o1)C(C)(C)C [Compound 117] | > 6.60 | 
> 6.60 | > 7.60 | > 7.60 | CN[C@@H](C)C(=O)N[C@H](C(=O)N1CCC[C@H]1CN(CCc1ccc(F)cc1)C(=O)c1cn(C)cn1)C1CCCCC1 [Compound 120] | > 7.30 | 
> 6.60 | > 7.60 | > 7.60 | CN[C@@H](C)C(=O)N[C@H](C(=O)N1C[C@@H](Oc2ccccc2)C[C@H]1CN(CCc1ccc(F)cc1)C(=O)c1cn2cccnc2n1)C(C)(C)C [Compound 124] | > 7.30 | 
